Read-outs that look alike come from different tables or passages of the source.
System: Escherichia coli ATCC 25922
Experiment: 50% growth inhibitory concentration (IC50) determination, Iso-Sensitest broth dilution
Format: cell-based
Conditions: strain Escherichia coli ATCC 25922, 10-point broth dilution, optical density at 600 nm over 16 h, read-out: Escherichia coli growth inhibition IC50
Outline: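 10-point twofold Iso-Sensitest broth dilution (e.g. 50 to 0.097 μM final) with DMSO stocks, incubated at 35±2° C. Growth followed by OD 600 nm every 20 min over 16 h; IC50 derived from growth inhibition during logarithmic phase.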

[1] = Escherichia coli, ATCC25922, 16 h

| IC50 [1] | IC50 | Compound |
| --- | --- | --- |
| < 97.7 nM | – | N#Cc1ncc(F)c2c1CC(CNCCC1CN(c3ccc4c(n3)NC(=O)CO4)C(=O)O1)C2 (stereo not shown) [Example 37, 4-fluoro-6-[[2-[2-oxo-3-(3-oxo-4H-pyrido[3,2-b][1,4]oxazin-6-yl)-1,3-oxazolidin-5-yl]ethylamino]methyl]-6,7-dihydro-5H-cyclopenta[c]pyridine-1-carbonitrile; formic acid] |
| 453 nM | – | O=C1COc2ccc(N3CC(CNCC4Cc5cccc(Cl)c5C4)OC3=O)nc2N1 (stereo not shown) [Example 21, 6-[5-[[(4-chloro-2,3-dihydro-1H-inden-2-yl)methylamino]methyl]-2-oxo-1,3-oxazolidin-3-yl]-4H-pyrido[3,2-b][1,4]oxazin-3-one; formic acid] |
| < 97.7 nM | – | Cn1nnc(COc2cc(C#N)c3c(c2)CC(CNCCC2CN(c4cnc5c(n4)NC(=O)CO5)C(=O)O2)C3)n1 (stereo not shown) [Example 389, 6-[(2-methyltetrazol-5-yl)methoxy]-2-[[2-[2-oxo-3-(3-oxo-4H-pyrazino[2,3-b][1,4]oxazin-6-yl)-1,3-oxazolidin-5-yl]ethylamino]methyl]-2,3-dihydro-1H-indene-4-carbonitrile] |
| 1890 nM | – | Cc1ncc(F)c2c1CC(CCNCC1(CCO)CN(c3ccc4c(n3)NC(=O)CO4)C(=O)O1)C2 (stereo not shown) [Example 278, 6-[5-[[2-(4-fluoro-1-methyl-6,7-dihydro-5H-cyclopenta[c]pyridin-6-yl)ethylamino]methyl]-5-(2-hydroxyethyl)-2-oxo-1,3-oxazolidin-3-yl]-4H-pyrido[3,2-b][1,4]oxazin-3-one] |
| < 97.7 nM | – | N#Cc1cccc2c1CC(NCCCC1CN(c3ccc4c(n3)NC(=O)CO4)C(=O)O1)C2 (stereo not shown) [Example 13, 2-[3-[2-oxo-3-(3-oxo-4H-pyrido[3,2-b] [1,4]oxazin-6-yl)-1,3-oxazolidin-5-yl]propylamino]-2,3-dihydro-1H-indene-4-carbonitrile; formic acid] |
| < 97.7 nM | – | N[C@@H]1c2cccc(Cl)c2C[C@H]1CN1CCC2(CC1)CN(c1cnc3c(n1)NC(=O)CO3)C(=O)O2 (racemic) [Example 259, 6-[2-Oxo-8-[[rac-1,2-trans-1-amino-4-chloro-2,3-dihydro-1H-inden-2-yl]methyl]-1-oxa-3,8-diazaspiro[4.5]decan-3-yl]-4H-pyrazino[2,3-b][1,4]oxazin-3-one; formic acid] |
| ≤ 97.7 nM | – | COc1ncc(F)c2c1CC(CNCCC1CN(c3ccc4c(n3)NC(=O)CO4)C(=O)O1)C2 (stereo not shown) [Example 70, 6-[5-[2-[(4-fluoro-1-methoxy-6,7-dihydro-5H-cyclopenta[c]pyridin-6-yl)methylamino]ethyl]-2-oxo-oxazolidin-3-yl]-4H-pyrido[3,2-b][1,4]oxazin-3-one] |
| < 97.7 nM | – | N#Cc1cccc2c1CC(CN1CCC3(CC1)CN(c1cnc4c(n1)NC(=O)CO4)C(=O)O3)C2 (stereo not shown) [Example 261, 2-[[2-Oxo-3-(3-oxo-4H-pyrazino[2,3-b][1,4]oxazin-6-yl)-1-oxa-3,8-diazaspiro[4.5]decan-8-yl]methyl]-2,3-dihydro-1H-indene-4-carbonitrile; formic acid] |
| < 97.7 nM | – | Cc1ncc(Cl)c2c1CC(CNCCC1CN(c3ccc4c(n3)NC(=O)CS4)C(=O)O1)C2N (racemic) [Example 264, 3-(3-Oxo-4H-pyrido[3,2-b][1,4]thiazin-6-yl)-5-[2-[[rac-5,6-trans-5-amino-4-chloro-1-methyl-6,7-dihydro-5H-cyclopenta[c]pyridin-6-yl]methylamino]ethyl]-1,3-oxazolidin-2-one] |
| – | 321 nM | Cc1ncc(F)c2c1CC(NC(C)CCC1CN(c3cnc4c(n3)NC(=O)CO4)C(=O)O1)C2 (single isomer, unassigned; isomer b) [Example 334, 6-[5-[3-[(4-fluoro-1-methyl-6,7-dihydro-5H-cyclopenta[c]pyridin-6-yl)amino]butyl]-2-oxo-1,3-oxazolidin-3-yl-4H-pyrazino[2,3-b][1,4]oxazin-3-one, Isomer B] |
| 439 nM | – | O=C1COc2ccc(N3CC(CCCNC4Cc5ccccc5C4)OC3=O)nc2N1 (stereo not shown) [Example 9, 6-[5-[3-(2,3-dihydro-1H-inden-2-ylamino)propyl]-2-oxo-1,3-oxazolidin-3-yl]-4H-pyrido[3,2-b][1,4]oxazin-3-one; formic acid] |
| 319 nM | – | Cc1ncc(F)c2c1CC(CNC[C@@H](O)[C@H]1CN(c3cnc4c(n3)NC(=O)CO4)C(=O)O1)C2 (stereo partly drawn) [Example 360, 6-[(5R)-5-[(1R)-2-[(4-Fluoro-1-methyl-6,7-dihydro-5H-cyclopenta[c]pyridin-6-yl)methylamino]-1-hydroxyethyl]-2-oxo-1,3-oxazolidin-3-yl]-4H-pyrazino[2,3-b][1,4]oxazin-3-one; formic acid] |
| 192 nM | – | Cn1ccc(COc2cc(C#N)c3c(c2)CC(CNCCC2CN(c4cnc5c(n4)NC(=O)CO5)C(=O)O2)C3)n1 (stereo not shown) [Example 388, 6-[(1-methylpyrazol-3-yl)methoxy]-2-[[2-[2-oxo-3-(3-oxo-4H-pyrazino[2,3-b][1,4]oxazin-6-yl)-1,3-oxazolidin-5-yl]ethylamino]methyl]-2,3-dihydro-1H-indene-4-carbonitrile] |
| 175 nM | – | Cc1ncc(F)c2c1CC(CNCCc1nn(-c3ccc4c(n3)NC(=O)CO4)c(=O)o1)C2 (stereo not shown) [Example 68, 6-[5-[2-[(4-fluoro-1-methyl-6,7-dihydro-5H-cyclopenta[c]pyridin-6-yl)methylamino]ethyl]-2-oxo-1,3,4-oxadiazol-3-yl]-4H-pyrido[3,2-b][1,4]oxazin-3-one] |
| < 97.7 nM | – | NC1(CCNCC2CN(c3ccc4c(n3)NC(=O)CO4)C(=O)O2)Cc2cccc(Cl)c2C1 (stereo not shown) [Example 142, 6-[5-[[2-(2-amino-4-chloro-1,3-dihydroinden-2-yl)ethylamino]methyl]-2-oxo-1,3-oxazolidin-3-yl]-4H-pyrido[3,2-b][1,4]oxazin-3-one; formic acid] |
| 364 nM | – | CC(CN)Oc1cc(F)c2c(c1)CC(CNCCC1CN(c3ccc4c(n3)NC(=O)CO4)C(=O)O1)C2 (stereo not shown) [Example 155, 6-[5-[2-[[6-(1-aminopropan-2-yloxy)-4-fluoro-2,3-dihydro-1H-inden-2-yl]methylamino]ethyl]-2-oxo-1,3-oxazolidin-3-yl]-4H-pyrido[3,2-b][1,4]oxazin-3-one; formic acid] |
| 717 nM | – | Cc1c(OCC(=O)NC(C)C)nc(C#N)c2c1CC(CNCCC1CN(c3ccc4c(n3)NC(=O)CO4)C(=O)O1)C2 (stereo not shown) [Example 222, 2-((1-cyano-4-methyl-6-(((2-(2-oxo-3-(3-oxo-3,4-dihydro-2H-pyrido[3,2-b][1,4]oxazin-6-yl)oxazolidin-5-yl)ethyl)amino)methyl)-6,7-dihydro-5H-cyclopenta[c]pyridin-3-yl)oxy)-N-isopropylacetamide] |
| 127 nM | – | N#Cc1cc(OCC(N)=O)cc2c1CC(CNCCC1CN(c3cnc4c(n3)NC(=O)CO4)C(=O)O1)C2 (stereo not shown) [Example 414, 2-[[7-cyano-2-[[2-[2-oxo-3-(3-oxo-4H-pyrazino[2,3-b][1,4]oxazin-6-yl)-1,3-oxazolidin-5-yl]ethylamino]methyl]-2,3-dihydro-1H-inden-5-yl]oxy]acetamide] |
| < 97.7 nM | – | CC(C)(N)COc1cc(F)c2c(c1)CC(CN1CCC3(CC1)CN(c1cnc4c(n1)NC(=O)CO4)C(=O)O3)C2 (single isomer, unassigned; enantiomer a) [Example 377, 6-[8-[[6-(2-Amino-2-methylpropoxy)-4-fluoro-2,3-dihydro-1H-inden-2-yl]methyl]-2-oxo-1-oxa-3,8-diazaspiro[4.5]decan-3-yl]-4H-pyrazino[2,3-b][1,4]oxazin-3-one; formic acid, Enantiomer A] |
| 180 nM | – | CNC(=O)COc1cc(F)c2c(c1)CC(CNCCC1CN(c3cnc4c(n3)NC(=O)CO4)C(=O)O1)C2 (stereo not shown) [Example 310, 2-[[7-fluoro-2-[[2-[2-oxo-3-(3-oxo-4H-pyrazino[2,3-b][1,4]oxazin-6-yl)-1,3-oxazolidin-5-yl]ethylamino]methyl]-2,3-dihydro-1H-inden-5-yl]oxy]-N-methylacetamide; formic acid] |
| 278 nM | – | NC1(CNCCC2CN(c3ccc4c(n3)NC(=O)CO4)C(=O)O2)Cc2cccc(Cl)c2C1 (stereo not shown) [Example 240, 6-[5-[2-[(2-Amino-4-chloro-1,3-dihydroinden-2-yl)methylamino]ethyl]-2-oxo-1,3-oxazolidin-3-yl]-4H-pyrido[3,2-b][1,4]oxazin-3-one; formic acid] |
| 225 nM | – | Cc1nc(N(C)C)cc2c1CC(CNCCC1CN(c3ccc4c(n3)NC(=O)CO4)C(=O)O1)C2 (stereo not shown) [Example 419, 6-[5-[2-[[3-(Dimethylamino)-1-methyl-6,7-dihydro-5H-cyclopenta[c]pyridin-6-yl]methylamino]ethyl]-2-oxo-1,3-oxazolidin-3-yl]-4H-pyrido[3,2-b][1,4]oxazin-3-one] |
| < 97.7 nM | – | NC1(COc2cc(F)c3c(c2F)CC(CN2CCC4(CC2)CN(c2cnc5c(n2)NC(=O)CO5)C(=O)O4)C3)CC1 (stereo not shown) [Example 410, 6-[8-[[5-[(1-aminocyclopropyl)methoxy]-4,7-difluoro-2,3-dihydro-1H-inden-2-yl]methyl]-2-oxo-1-oxa-3,8-diazaspiro[4.5]decan-3-yl]-4H-pyrazino[2,3-b][1,4]oxazin-3-one; formic acid] |
| < 97.7 nM | – | O=C1COc2ncc(N3CC(CCNCC4Cc5nccc(F)c5C4)OC3=O)nc2N1 (stereo not shown) [Example 318, 6-[5-[2-[(4-fluoro-6,7-dihydro-5H-cyclopenta[b]pyridin-6-yl)methylamino]ethyl]-2-oxo-1,3-oxazolidin-3-yl]-4H-pyrazino [2,3-b][1,4]oxazin-3-one] |
| < 97.7 nM | – | NC(=O)COc1cc(F)c2c(c1)CC(CNCCC1CN(c3cnc4c(n3)NC(=O)CO4)C(=O)O1)C2 (stereo not shown) [Example 305, 2-[[7-fluoro-2-[[2-[2-oxo-3-(3-oxo-4H-pyrazino[2,3-b][1,4]oxazin-6-yl)-1,3-oxazolidin-5-yl]ethylamino]methyl]-2,3-dihydro-1H-inden-5-yl]oxy]acetamide] |
